In US12595253B2, “Benzamides of pyrazolylamino-pyrimidinyl derivatives, and compositions and methods thereof” (LYNK PHARMACEUTICALS CO. LTD., priority 2019, dated 2026):

What was measured:
JAK2V617F = target: T1, JAK2V617F (Homo sapiens, UniProt O60674, V617F); assay: JAK2V617F microfluidic kinase assay (Caliper EZ Reader II, FAM labeled peptide substrate); format: biochemical; conditions: JAK2V617F 2.5 nM, 1 mM ATP
T1 construct: purchased Carna Biosciences
Procedure, shortened: (§1)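 Compounds, serially diluted 3-fold from 5 μM, were preincubated 10 min with enzyme at ambient temperature before reaction in HEPES/Brij35/MgCl2/DTT buffer (1% DMSO final), tuned to 10% peptide conversion. After EDTA stop, FAM-peptide phosphorylation was measured by Caliper EZ Reader II; IC50 fitted from percent-inhibition curves.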

JAK1 = target: T2, JAK1 (Homo sapiens, UniProt P23458); assay: JAK1 microfluidic kinase assay (Caliper EZ Reader II, FAM labeled peptide substrate); format: biochemical; conditions: IC50 JAK1 (5 nM) (1 m MATP), JAK1 5 nM, 1 mM ATP
T2 construct: purchased Carna Biosciences
Procedure, shortened: as §1

[1] = Liver microsomes study, Phase I stability (RLM); format: in vitro ADME, rat; conditions: pH 7.4
Description: (§2) Commercially available liver microsomes (MsLM vendor: XENOTECH; RLM, DLM, MkL, HLM vendor: Corning) were used for study the Phase I stability of test articles. […] The reaction was initiated by addition of 80 μL of the NADPH regenerating system to 320 µL of each incubation mixture per time point. […] The 0-minute samples were prepared by addition of an 80 μL aliquot of each incubation mixture to 400 μL quench reagent to precipitate proteins. And then a 20 μL aliquot of the NADPH regenerating system was added. At 10, 30, and 90 minutes, the reaction will be stopped by the addition of cold acetonitrile solution containing tolbutamide and propanolol served as internal standard. The samples taken at all time points were centrifuged at 4000×g for 15 minutes. 80 μL of supernatant are taken into 96-well assay plates pre-added with 160 μL ultrapure water, and then analyzed by LC/MS/MS(Shimadzu LC30AD & API4000/API5000)). Concentrations of test articles, control compounds in the samples were determined by using LC/MS/MS) method. Plotting of the chromatograms and peak area integrations are carried out by Analyst (AB Sciex).
(§3) In the determination of the in vitro elimination constant, ke, of the control compounds, the analyte/internal standard peak area ratios will be converted to percentage remaining (% Remaining) with the following equation: […]
(§4) The slope was measured by the natural logarithm of the percentage of the residual compound and time, T½ and CLint were calculated according to the following formulas, V/M was equal to the 1/concentration of protein.

[2] = Liver microsomes study, Phase I stability (HLM); format: in vitro ADME, human; conditions: pH 7.4
Description: as §2, §3, §4

JAK2 = target: T3, JAK2 (Homo sapiens, UniProt O60674); assay: JAK2 microfluidic kinase assay (Caliper EZ Reader II, FAM labeled peptide substrate); format: biochemical
T3 construct: purchased Carna Biosciences
Procedure, shortened: as §1

[3] = rat liver microsomes 0.5 mg/mL, 1 μM test article, read-out: RLM Clint
[4] = human liver microsomes 0.5 mg/mL, 1 μM test article, read-out: HLM Clint
[5] = IC50 JAK2 ([…]) (1 mM ATP), 1 mM ATP
[6] = IC50 JAK2 ([…]) (Km ATP), Km ATP

T3 sequence (O60674 whole entry): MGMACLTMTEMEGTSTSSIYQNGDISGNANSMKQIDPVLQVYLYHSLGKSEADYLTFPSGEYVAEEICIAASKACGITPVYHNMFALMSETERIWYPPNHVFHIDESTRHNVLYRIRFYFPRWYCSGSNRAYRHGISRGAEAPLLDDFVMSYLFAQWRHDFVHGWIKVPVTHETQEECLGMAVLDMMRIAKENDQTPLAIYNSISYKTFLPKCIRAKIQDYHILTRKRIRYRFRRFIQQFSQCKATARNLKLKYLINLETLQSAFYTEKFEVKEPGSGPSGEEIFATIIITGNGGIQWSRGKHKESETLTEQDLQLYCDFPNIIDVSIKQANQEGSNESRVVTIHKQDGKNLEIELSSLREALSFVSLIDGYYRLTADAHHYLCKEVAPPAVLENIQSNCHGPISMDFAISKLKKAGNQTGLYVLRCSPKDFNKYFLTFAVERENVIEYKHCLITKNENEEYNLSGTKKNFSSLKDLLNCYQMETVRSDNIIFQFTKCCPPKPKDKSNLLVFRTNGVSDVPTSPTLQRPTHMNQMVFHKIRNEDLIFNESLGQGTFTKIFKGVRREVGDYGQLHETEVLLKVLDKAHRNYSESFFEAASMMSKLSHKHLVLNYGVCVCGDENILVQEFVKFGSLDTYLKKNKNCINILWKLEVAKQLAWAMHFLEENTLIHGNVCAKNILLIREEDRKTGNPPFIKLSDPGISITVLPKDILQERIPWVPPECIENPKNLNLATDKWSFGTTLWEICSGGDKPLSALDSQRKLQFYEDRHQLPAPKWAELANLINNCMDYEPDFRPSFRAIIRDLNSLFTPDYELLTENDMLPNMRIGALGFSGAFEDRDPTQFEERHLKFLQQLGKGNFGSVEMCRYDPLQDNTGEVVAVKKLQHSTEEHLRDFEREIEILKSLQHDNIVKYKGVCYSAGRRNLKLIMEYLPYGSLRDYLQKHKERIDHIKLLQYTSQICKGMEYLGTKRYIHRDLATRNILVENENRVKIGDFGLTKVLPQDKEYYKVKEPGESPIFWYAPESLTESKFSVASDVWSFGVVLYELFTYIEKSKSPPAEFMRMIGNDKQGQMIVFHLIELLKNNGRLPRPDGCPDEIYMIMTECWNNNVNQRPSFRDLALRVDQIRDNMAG
T1 sequence (O60674 whole entry V617F): as the sequence (O60674 whole entry) above, with V617F counted along it
T2 sequence (P23458 whole entry): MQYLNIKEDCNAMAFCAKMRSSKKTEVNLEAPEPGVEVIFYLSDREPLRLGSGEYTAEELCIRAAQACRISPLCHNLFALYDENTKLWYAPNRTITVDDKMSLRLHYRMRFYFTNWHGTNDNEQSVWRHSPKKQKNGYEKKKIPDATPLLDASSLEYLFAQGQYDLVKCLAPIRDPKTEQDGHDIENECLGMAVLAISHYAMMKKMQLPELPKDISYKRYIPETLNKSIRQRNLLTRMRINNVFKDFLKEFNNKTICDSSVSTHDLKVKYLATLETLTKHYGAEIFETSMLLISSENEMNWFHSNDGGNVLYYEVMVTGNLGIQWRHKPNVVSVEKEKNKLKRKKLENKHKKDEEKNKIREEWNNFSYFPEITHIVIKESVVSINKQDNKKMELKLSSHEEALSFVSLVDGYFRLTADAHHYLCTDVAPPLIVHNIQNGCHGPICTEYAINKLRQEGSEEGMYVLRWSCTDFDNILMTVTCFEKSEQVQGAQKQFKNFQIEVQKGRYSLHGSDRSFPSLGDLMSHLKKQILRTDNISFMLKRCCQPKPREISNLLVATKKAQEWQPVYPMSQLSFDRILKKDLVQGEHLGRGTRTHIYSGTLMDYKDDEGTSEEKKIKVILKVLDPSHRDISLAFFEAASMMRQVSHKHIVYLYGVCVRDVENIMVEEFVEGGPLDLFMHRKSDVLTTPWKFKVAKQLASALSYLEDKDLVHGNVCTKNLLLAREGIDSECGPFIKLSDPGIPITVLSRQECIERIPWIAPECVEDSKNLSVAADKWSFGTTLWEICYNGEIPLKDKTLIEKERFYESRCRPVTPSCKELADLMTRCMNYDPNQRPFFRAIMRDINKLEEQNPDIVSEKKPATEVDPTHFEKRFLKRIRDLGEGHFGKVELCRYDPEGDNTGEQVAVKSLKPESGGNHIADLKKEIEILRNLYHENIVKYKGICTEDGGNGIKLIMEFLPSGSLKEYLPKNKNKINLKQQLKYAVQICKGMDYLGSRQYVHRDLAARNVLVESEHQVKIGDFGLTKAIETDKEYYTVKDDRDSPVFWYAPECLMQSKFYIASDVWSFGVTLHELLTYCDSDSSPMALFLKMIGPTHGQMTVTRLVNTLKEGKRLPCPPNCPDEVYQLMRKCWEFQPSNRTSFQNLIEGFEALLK

Structure (SMILES) | IC50 (JAK2V617F) [nM] | IC50 (JAK1) [nM] | microsomal CLint at 1 μM [1, 3] [µL/min/mg] | microsomal CLint at 1 μM [2, 4] [µL/min/mg] | IC50 (JAK2; [5]) [nM] | IC50 (JAK2; [6]) [nM] | microsomal CLint at 1 μM ([1]; rat, microsomes) [µL/min/mg] | microsomal CLint at 1 μM ([2]; human, microsomes) [µL/min/mg]
N#CC1(CNC(=O)c2ccc(-c3nc(Nc4cnn(C5CCOCC5)c4)ncc3Cl)cc2)CC1 [Example 78, 4-(5-Chloro-2-((1-(tetrahydro-2H-pyran-4-yl)-1H-pyrazol-4-yl)amino)pyrimidin-4-yl)-N-((1-cyanocyclopropyl)methyl)benzamide] | 45.3 | 37.8 | 47.2 | 30 |  |  |  | 
Cc1cnc(Nc2cnn(C3CC3)c2)nc1-c1ccc(C(=O)N2CC(C#N)C2)c(F)c1 [Example 140, 1-(4-(2-((1-Cyclopropyl-1H-pyrazol-4-yl)amino)-5-methylpyrimidin-4-yl)-2-fluorobenzoyl)azetidine-3-carbonitrile] | 341 | 257 | 628 | 9.1 | 155 | 6.4 |  | 
Cc1cnc(Nc2cnn(C3CCOCC3)c2)nc1-c1ccc(C(=O)N[C@@H](C)C#N)cc1 [Example 144, (S)—N-(1-cyanoethyl)-4-(5-methyl-2-((1-(tetrahydro-2H-pyran-4-yl)-1H-pyrazol-4-yl)amino)pyrimidin-4-yl)benzamide] | 30.1 | 13.9 | 38.6 | 19.4 |  |  |  | 
Cc1cnc(Nc2cnn(C3C[C@H]4CC[C@@H](C3)O4)c2)nc1-c1ccc(C(=O)N[C@@H](C)C#N)cc1 (stereo partly drawn) [Example 70, 4-(2-((1-((1R,5S)-8-oxabicyclo[3.2.1]octan-3-yl)-1H-pyrazol-4-yl)amino)-5-methylpyrimidin-4-yl)-N—((S)-1-cyanoethyl)benzamide] | 7.22 | 12.4 | 32.5 | 42.9 |  |  |  | 
Cc1cnc(Nc2cnn(C3CC(C#N)C3)c2)nc1-c1ccc(C(=O)NCC#N)cc1 (centres unmarked) [Example 106, 4-(2-((1-(3-Cyanocyclobutyl)-1H-pyrazol-4-yl)amino)-5-methylpyrimidin-4-yl)-N-(cyanomethyl)benzamide] | 23.7 | 14.9 | 38.4 | 11.1 | 2.17 | 0.25 |  | 
Cc1cnc(Nc2cnn(C)c2)nc1-c1ccc(C(=O)N[C@H](C)C#N)cc1 [Example 101, (R)—N-(1-cyanoethyl)-4-(5-methyl-2-((1-methyl-1H-pyrazol-4-yl)amino)pyrimidin-4-yl)benzamide] | 362 | 75.1 | 19.2 | 2 |  | 4.5 |  | 
Cc1cnc(Nc2cnn(C3CCN(C(=O)C4(F)CC4)CC3)c2)nc1-c1ccc(C(=O)NCC#N)cc1 [Example 152, N-(cyanomethyl)-4-(2-((1-(1-(1-fluorocyclopropanecarbonyl)piperidin-4-yl)-1H-pyrazol-4-yl)amino)-5-methylpyrimidin-4-yl)benzamide] | 0.67 | 14.9 | 85.9 | 96 | < 0.25 |  |  | 
Cc1cnc(Nc2cnn(C3CCN(C(=O)C4CC4)CC3)c2)nc1-c1ccc(C(=O)NCC#N)nc1 [Example 150, N-(cyanomethyl)-5-(2-((1-(1-(cyclopropanecarbonyl)piperidin-4-yl)-1H-pyrazol-4-yl)amino)-5-methylpyrimidin-4-yl)picolinamide] | 4.19 | 23.5 | 80.8 | 56.4 |  |  |  | 
COCCNC(=O)c1ccc(-c2nc(Nc3cnn(C)c3)ncc2C)cc1 [Example 6, N-(2-Methoxyethyl)-4-(5-methyl-2-((1-methyl-1H-pyrazol-4-yl)amino)pyrimidin-4-yl)benzamide] | 669 | 75.4 | 2.58 | 6.6 |  | 8.4 |  | 
N#CCNC(=O)c1ccc(-c2nc(Nc3cnn(C4CC4)c3)ncc2Cl)cn1 [Example 120, 5-(5-Chloro-2-((1-cyclopropyl-1H-pyrazol-4-yl)amino)pyrimidin-4-yl)-N-(cyanomethyl)picolinamide] | 131 | 39.8 | 47.5 | 16.2 |  |  |  | 
Cc1cnc(Nc2cnn(C3CCN(C(=O)C(C)(C)O)CC3)c2)nc1-c1ccc(C(=O)NCC#N)cc1 [Example 51, N-(cyanomethyl)-4-(2-((1-(1-(2-hydroxy-2-methylpropanoyl)piperidin-4-yl)-1H-pyrazol-4-yl)amino)-5-methylpyrimidin-4-yl)benzamide] | 0.51 | 8.7 | 17.1 | 33.9 |  |  |  | 
Cc1cnc(Nc2cnn(C(C)C(F)(F)F)c2)nc1-c1ccc(C(=O)NCC#N)cc1 (centres unmarked) [Example 112, N-(cyanomethyl)-4-(5-methyl-2-((1-(1,1,1-trifluoropropan-2-yl)-1H-pyrazol-4-yl)amino)pyrimidin-4-yl)benzamide] | 119 | 6.43 | 76.4 | 49.1 | 79 |  |  | 
Cc1cnc(Nc2cnn(C3CCN(C(=O)[C@H]4CC4(C)C)CC3)c2)nc1-c1ccc(C(=O)NCC#N)cc1 [Example 143, (S)—N-(cyanomethyl)-4-(2-((1-(1-(2,2-dimethylcyclopropanecarbonyl)piperidin-4-yl)-1H-pyrazol-4-yl)amino)-5-methylpyrimidin-4-yl)benzamide] | 17.3 | 15.4 | 599 | 1430 | 0.4 |  |  | 
Cc1cnc(Nc2cnn([C@H]3CC[C@H](C#N)CC3)c2)nc1-c1ccc(C(=O)N[C@@H](C)C#N)cc1 [Example 154, 4-(2-((1-(Trans-4-cyanocyclohexyl)-1H-pyrazol-4-yl)amino)-5-methylpyrimidin-4-yl)-N—((S)-1-cyanoethyl)benzamide] | 4.5 | 12 | 69 | 14.7 |  |  |  | 
CO[C@H]1CC[C@H](n2cc(Nc3ncc(C)c(-c4ccc(C(=O)N[C@@H](C)C#N)cc4)n3)cn2)CC1 [Example 91, N—((S)-1-cyanoethyl)-4-(2-((1-(trans-4-methoxycyclohexyl)-1H-pyrazol-4-yl)amino)-5-methylpyrimidin-4-yl)benzamide] | 15.8 | 12 | 80.1 | 6.7 | 0.35 |  |  | 
Cc1cnc(Nc2cnn(C3CC4CCC(C3)N4CC(F)(F)F)c2)nc1-c1ccc(C(=O)NCC#N)cc1 [Example 134, N-(cyanomethyl)-4-(5-methyl-2-((1-((1R,3s,5S)-8-(2,2,2-trifluoroethyl)-8-azabicyclo[3.2.1]octan-3-yl)-1H-pyrazol-4-yl)amino)pyrimidin-4-yl)benzamide] |  | 22.4 |  |  | 10.7 |  | 1950 | 1190
Cc1cnc(Nc2cnn(C3CCN(C(=O)C4CC4)CC3)c2)nc1-c1ccc(C(=O)NCC2(C#N)CC2)cc1 [Example 158, N-((1-cyanocyclopropyl)methyl)-4-(2-((1-(1-(cyclopropanecarbonyl)piperidin-4-yl)-1H-pyrazol-4-yl)amino)-5-methylpyrimidin-4-yl)benzamide] | 28.2 | 23.9 | 124 | 142 | 0.88 |  |  | 
CC(C)(C#N)CNC(=O)c1ccc(-c2nc(Nc3cnn(C4CC4)c3)ncc2Cl)cc1 [Example 123, 4-(5-Chloro-2-((1-cyclopropyl-1H-pyrazol-4-yl)amino)pyrimidin-4-yl)-N-(2-cyano-2-methylpropyl)benzamide] | 56 | 19 | 77.3 | 35.2 | 13 |  |  | 
N#CC1(CNC(=O)c2ccc(-c3nc(Nc4cnn(C5CC5)c4)ncc3Cl)cc2)CC1 [Example 60, 4-(5-Chloro-2-((1-cyclopropyl-1H-pyrazol-4-yl)amino)pyrimidin-4-yl)-N-((1-cyanocyclopropyl)methyl)benzamide] |  | 15.3 | 40.8 | 24.6 | 30.6 |  |  | 
Cc1cnc(Nc2cnn(C3C[C@@H](C)O[C@@H](C)C3)c2)nc1-c1ccc(C(=O)NCC#N)cc1 (some centres unmarked) [Example 68] | 9.07 | 30.4 | 228 | 141 |  |  |  | 
